Experimental data reported in US7384912B2, “Treatment of bone disorders with skeletal anabolic drugs” (Osteotrophin, LLC, priority 2002, dated 2008).
Where two headings read alike, the source gives them in different places. Marks after values point to notes of the source that are not given here. No end group written: not given here.

Key:
[1] = target: T1, PTH/PTHrP receptors in human renal cortical membranes (RCM) (Homo sapiens, UniProt Q03431); test: Competition binding of 125I-(Tyr36)hPTHrP-(1-36)NH2 to human renal cortical membranes
T1 sequence (Q03431 27-593): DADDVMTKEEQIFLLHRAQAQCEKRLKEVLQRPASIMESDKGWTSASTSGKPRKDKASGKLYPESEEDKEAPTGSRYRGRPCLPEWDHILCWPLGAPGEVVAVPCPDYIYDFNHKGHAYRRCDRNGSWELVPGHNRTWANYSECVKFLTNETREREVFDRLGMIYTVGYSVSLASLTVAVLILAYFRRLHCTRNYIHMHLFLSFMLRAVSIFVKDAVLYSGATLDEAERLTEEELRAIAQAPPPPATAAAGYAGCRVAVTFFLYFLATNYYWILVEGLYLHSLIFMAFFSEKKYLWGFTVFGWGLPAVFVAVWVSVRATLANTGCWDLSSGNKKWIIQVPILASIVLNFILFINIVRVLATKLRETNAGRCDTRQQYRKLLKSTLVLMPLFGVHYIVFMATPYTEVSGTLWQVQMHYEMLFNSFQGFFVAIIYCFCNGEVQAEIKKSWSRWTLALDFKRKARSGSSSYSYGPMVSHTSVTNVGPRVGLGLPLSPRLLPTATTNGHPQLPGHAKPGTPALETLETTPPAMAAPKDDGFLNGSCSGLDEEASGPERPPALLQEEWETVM
Method: All steps were performed in the presence of the following protease inhibitors: aprotinin [10 Kallikrein inhibitor units (KIU/ml], pepstatin (5 μg/ml), leupeptin (45 μg/ml), and phenylmethanesulfanylfluoride (10 μg/ml). Normal human kidney cortex was from four separate nephrectomy specimens removed for localized transitional cell carcinoma, renal cell carcinoma, or benign cysts. Renal function in all individuals was normal as assessed by serum creatinine and pyelography. Membranes were pooled, aliquoted, and stored at −70° C. for later use.
Human RCM were added to a final concentration of 90 μg/ml. […] The incubation time of 30 min was used for subsequent equilibrium binding competition studies.
(§1) Statistical differences were assessed by paired and unpaired two-tailed Student's t test.

[2] = system: patients with osteoporosis; details: cited from earlier work
[3] = system: ovariectomized (OVX) rats; test: Bone mass measurements in ovariectomized rats; type: in vivo, rat; parameters: Left Femur Length: unit not given here; details: 40 μg/kg/day s.c. once daily
[4] = system: ovariectomized (OVX) rats; test: Bone histomorphometry of the right proximal tibia in ovariectomized rats; type: in vivo, rat; parameters: Trabecular Number Tb.N.: unit not given here; details: for Apposition Rate MAR / Bone Formation Rate BFR/BS / Mineralizing Surface MS/BS / Osteoclast Surface Oc.PM / Resorbing Surface E.PM / Trabecular Area Tb.A. / Trabecular Number Tb.N. / Trabecular Space Tb.Sp. / Trabecular Thickness Tb.Th.: 40 μg/kg/day s.c. once daily
[5] = system: adenylate cyclase in SaOS-2 intact cells; test: Adenylate cyclase assay in SaOS-2 intact cells; type: cell-based, human; details: 15° C., 60 min
Method: Adenylate cyclase-stimulating activity was examined in confluent SAOS-2 cells as previously described for ROS 17/2.8 cells (Merendino et al., Science 231:388-390, (1986)), with the following modification. The intact cell assay was conducted at 15° C., the same conditions employed for binding to intact SaOS-2 cells (vide supra). […] Dose response curves for each peptide were thus generated using 60 min incubations at 15° C. under binding assay conditions.
as §1

[6] = system: ovariectomized (OVX) rats; test: Biomechanical measures of strength in ovariectomized rats; type: in vivo, rat; details: 40 μg/kg/day s.c. once daily
[7] = target: T2, PTH/PTHrP receptors on SaOS-2 intact cells (Homo sapiens, UniProt Q03431); test: Competition binding of 125I-(Tyr36)hPTHrP-(1-36)NH2 to SaOS-2 intact cells
T2 sequence (Q03431 27-593): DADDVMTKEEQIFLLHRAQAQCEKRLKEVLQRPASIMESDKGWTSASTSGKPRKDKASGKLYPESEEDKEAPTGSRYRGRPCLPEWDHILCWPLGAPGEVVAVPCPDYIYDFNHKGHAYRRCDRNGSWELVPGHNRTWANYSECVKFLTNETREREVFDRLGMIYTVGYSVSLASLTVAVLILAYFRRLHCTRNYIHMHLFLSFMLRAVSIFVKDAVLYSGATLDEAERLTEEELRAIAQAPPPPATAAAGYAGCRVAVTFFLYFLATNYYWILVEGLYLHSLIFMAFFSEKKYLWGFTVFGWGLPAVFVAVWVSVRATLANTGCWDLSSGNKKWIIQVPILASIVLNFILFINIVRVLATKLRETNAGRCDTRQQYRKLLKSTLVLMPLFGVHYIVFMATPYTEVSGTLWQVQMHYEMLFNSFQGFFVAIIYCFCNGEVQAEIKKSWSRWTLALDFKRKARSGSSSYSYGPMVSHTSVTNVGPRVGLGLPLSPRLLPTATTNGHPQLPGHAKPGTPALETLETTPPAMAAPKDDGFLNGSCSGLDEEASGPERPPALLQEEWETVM
Method: The medium was changed every other day, and studies were performed at 5-7 days post confluence. Cell numbers were determined using a Coulter counter.
Binding studies were conducted at 15° C. in the presence of chymostatin (100 μg/ml) and bacitracin (200 μg/ml). […] The incubation time of 150 min was therefore used for competitive binding studies.

[8] = target: T3, PTH/PTHrP receptors in SaOS-2 membranes (Homo sapiens, UniProt Q03431); test: Competition binding of 125I-(Tyr36)hPTHrP-(1-36)NH2 to SaOS-2 membranes; details: 30° C., 60 min
T3 sequence (Q03431 27-593): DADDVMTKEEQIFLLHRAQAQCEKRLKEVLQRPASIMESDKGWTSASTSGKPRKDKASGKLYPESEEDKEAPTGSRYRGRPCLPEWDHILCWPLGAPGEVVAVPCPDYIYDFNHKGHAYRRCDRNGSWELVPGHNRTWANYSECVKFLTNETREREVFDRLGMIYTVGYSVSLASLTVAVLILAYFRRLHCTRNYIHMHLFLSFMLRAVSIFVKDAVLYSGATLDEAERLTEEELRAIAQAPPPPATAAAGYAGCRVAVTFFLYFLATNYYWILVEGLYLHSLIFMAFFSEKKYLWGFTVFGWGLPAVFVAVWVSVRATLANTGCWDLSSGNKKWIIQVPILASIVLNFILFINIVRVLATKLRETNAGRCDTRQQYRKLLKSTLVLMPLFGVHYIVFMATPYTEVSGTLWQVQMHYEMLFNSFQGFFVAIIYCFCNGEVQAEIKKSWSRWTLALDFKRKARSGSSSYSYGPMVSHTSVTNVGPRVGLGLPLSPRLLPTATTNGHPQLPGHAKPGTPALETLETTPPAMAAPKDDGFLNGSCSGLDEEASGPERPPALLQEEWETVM
Method: Briefly, postconfluent cells in 150 cm^2 flasks were scraped into membrane buffer [10 mM Tris HCl (pH 7.5), 0.2 mM MgCl2, 0.5 mM EGTA, 1 mM dithiothreitol, leupeptin 45 μg/ml, pepstatin 5 μg/ml, aprotinin 10 KIU/ml, and phenylmethane sulfanyl-fluoride 10 μg/ml] at 0° C. Cell disruption was achieved by sonification and the suspension was centrifuged at 13,000×g for 15 min at 4° C. […] The suspension was layered onto a cushion of the membrane buffer containing 45% sucrose and centrifuged at 70,000×g for 30 min at 4° C. […] Protein concentrations were determined by the method of Lowry using BSA as standard.
The binding assay for SaOS-2 membranes was conducted as for human RCM. Membranes were added to a final concentration of 112.5 μg/ml and specific binding reached equilibrium by 60 min at 30° C.

## SVSEMQLMHNLGEHRHTVERQDWLQMKLQDVHSA-NH2 [cPTH-(1-34)NH2, Chicken PTH-(1-34)amide]
[1]; human RCM, 30° C., 30 min, read-out: Binding (IC50) Kidney membranes
  IC50: 21.5 ± 8.5 nM

## hPTH-(1-34)
[2]; at three months (Finkelstein et al.)
  increase in urinary hydroxyproline and pyridinolines: approximately 200%
[2]; at three months (Lindsay et al.)
  increase in resorption assessed using urinary NIX: 25%
[2]; multiple studies
  increase in lumbar spine bone mineral density: 10-15%
[2]; one study (Roe et al.)
  increase in lumbar spine trabecular bone density by QCT: ≤ 80%
  increase in spine bone mineral density by DXA: ≤ 30%
[3]; 30 days
  Left Femur BMC: 0.340 ± 0.011^a,c
  Left Femur BMD: 0.200 ± 0.004^a
  Left Femur Length: 34.9 ± 0.3
  Left Femur X Area: 1.68 ± 0.04^c
  Radius Ash Weight: 60 ± 1^c mg
  Whole Body BMC: 64 ± 3^c
[3]; 90 days
  Left Femur BMC: 0.401 ± 0.010^a,c
  Left Femur BMD: 0.232 ± 0.005^a,c
  Left Femur Length: 35.7 ± 0.2^c
  Left Femur X Area: 1.73 ± 0.03^c
  Radius Ash Weight: 66 ± 1^a,c mg
  Whole Body BMC: 69 ± 3^c
[3]; 180 days
  Left Femur BMC: 0.451 ± 0.012^a,c
  Left Femur BMD: 0.234 ± 0.004^a,c
  Left Femur Length: 35.6 ± 0.3^c
  Left Femur X Area: 1.84 ± 0.04^a,c
  Radius Ash Weight: 72 ± 2^a,c mg
  Whole Body BMC: 71 ± 3^c
[4]; 30 days
  Apposition Rate MAR: 2.4 ± 0.1^c μm/d
  Bone Formation Rate BFR/BS: 1.18 ± 7^a,c μm/d
  Mineralizing Surface MS/BS: 49 ± 2^a,c %
  Osteoclast Surface Oc.PM: 2.3 ± 0.6%
  Resorbing Surface E.PM: 8.6 ± 1.2%
  Trabecular Area Tb.A.: 19 ± 2^a %
  Trabecular Number Tb.N.: 2.3 ± 0.1
  Trabecular Space Tb.Sp.: 367 ± 28^a,c Φm
  Trabecular Thickness Tb.Th.: 81 ± 5^a,c Φm
[4]; 90 days
  Apposition Rate MAR: 3.0 ± 0.1^a,c μm/d
  Bone Formation Rate BFR/BS: 1.23 ± 4^a,c μm/d
  Mineralizing Surface MS/BS: 41 ± 1^a,c %
  Osteoclast Surface Oc.PM: 2.6 ± 0.5%
  Resorbing Surface E.PM: 10.6 ± 1.3^c %
  Trabecular Area Tb.A.: 38 ± 3^a,c %
  Trabecular Number Tb.N.: 2.4 ± 0.2
  Trabecular Space Tb.Sp.: 274 ± 34^a Φm
  Trabecular Thickness Tb.Th.: 158 ± 6^a,c Φm
[4]; 180 days
  Apposition Rate MAR: 3.8 ± 0.7^c μm/d
  Bone Formation Rate BFR/BS: 1.53 ± 28^a,c μm/d
  Mineralizing Surface MS/BS: 40 ± 2^a,c %
  Osteoclast Surface Oc.PM: 2.0 ± 0.4%
  Resorbing Surface E.PM: 6.4 ± 1.5%
  Trabecular Area Tb.A.: 38 ± 3^a,c %
  Trabecular Number Tb.N.: 2.3 ± 0.1
  Trabecular Space Tb.Sp.: 279 ± 29^a Φm
  Trabecular Thickness Tb.Th.: 163 ± 8^a,c Φm
[4]; 90 days of treatment
  bone in the right proximal tibia, photomicrographs: not only restores lost bone but significantly increases trabecular bone volume over Sham
[5]
  EC50: 1.6 nM
[6]; 30 days
  Femur Neck Ultimate Load, (Fu): 139 ± 3^ac N
  Mid-Femur Cortical Thickness (t): 0.64 ± 0.02^ac mm
  Mid-Femur Moment of Inertia (I): 4.5 ± 0.2 mm^4
  Mid-Femur Stiffness (S): 571 ± 13 N/mm
  Mid-Femur Toughness (u): 6.0 ± 0.3^c MJ/m^3
  Mid-Femur Ultimate Load (Fu): 185 ± 6^ac N
  Mid-Femur Ultimate Stress (Su): 229 ± 7 MPa
  Mid-Femur Work to Failure (U): 63 ± 4 mJ
  Mid-Femur Young's Modulus (E): 9.1 ± 0.3 Gpa
[6]; 90 days
  Femur Neck Ultimate Load, (Fu): 146 ± 4^ac N
  Mid-Femur Cortical Thickness (t): 0.71 ± 0.02^ac mm
  Mid-Femur Moment of Inertia (I): 4.5 ± 0.1 mm^4
  Mid-Femur Stiffness (S): 641 ± 14^ac N/mm
  Mid-Femur Toughness (u): 5.7 ± 0.3^a MJ/m^3
  Mid-Femur Ultimate Load (Fu): 209 ± 4^ac N
  Mid-Femur Ultimate Stress (Su): 251 ± 7^ac MPa
  Mid-Femur Work to Failure (U): 62 ± 3^a mJ
[6]; 180 days
  Femur Neck Ultimate Load, (Fu): 147 ± 6^ac N
  Mid-Femur Cortical Thickness (t): 0.89 ± 0.01^ac mm
  Mid-Femur Moment of Inertia (I): 5.4 ± 0.3^ac mm^4
  Mid-Femur Stiffness (S): 814 ± 31^ac N/mm
  Mid-Femur Toughness (u): 5.0 ± 0.3^ac MJ/m^3
  Mid-Femur Ultimate Load (Fu): 241 ± 9^ac N
  Mid-Femur Ultimate Stress (Su): 251 ± 8^ac MPa
  Mid-Femur Work to Failure (U): 61 ± 4^ac mJ

## hPTHrP-(1-74)
[7]; SaOS-2 cells
  affinity less than that of hPTHrP-(1-36): 9 fold
[5]
  EC50: 9.2 ± 1 nM
[1]; RCM
  affinity less than that of hPTHrP-(1-36): 25 fold

## hPTHrP-(37-74) (RATSEVSPNSKPSPNTKNHPVRFGSDDEGRYLTQETNK) [Human PTHrP fragment 37-74 prepared by solid phase synthesis]
[7]; intact cells, 15° C., 150 min
  Binding (IC50) SaOS cells: did not inhibit binding
[8]
  Binding (IC50) SaOS membranes: did not inhibit binding
[1]; human RCM, 30° C., 30 min
  Binding (IC50) Kidney membranes: did not inhibit binding

## vitamin D
[2]; two to three years of administration
  increase in lumbar spine bone mineral density: ~2%

B1: bPTH-(1-84) (protein)
chain: AVSEIQFMHNLGKHLSSMERVEWLRKKLQDVHNFVALGASIAYRDGSSQRPRKKEDNVLVESHQKSLGEADKADVDVLIKAKPQ
notes: Bovine full-length parathyroid hormone from the National Hormone and Pituitary Program
[1]; RCM and SaOS-2 membranes
  relative affinity less than the amino-terminal analogs: approximately 10 fold
